Structures are written as SMILES. Read-outs that look alike come from different tables or passages of the source.

The subject of one assay is MV4;11 cells. The assay can be described thus: Cell viability assay (CellTiter-Glo) in MV4;11 cells, alone or with gilteritinib. The class given is cell-based. The conditions noted are these: Homo sapiens, MV4-11, 72 h, MV4;11 cells, CellTiter-Glo, read-out: MV4. (ATP-based viability assays read luminescence as a measure of living cells.)
For a further assay, the system named is MOLM-13 cells. Description: Cell viability assay (CellTiter-Glo) in MOLM-13 cells, alone or with gilteritinib. The assay is classed as cell-based. To be noted: Homo sapiens, MOLM-13, 72 h, MOLM-13 cells, CellTiter-Glo.
Where [1] appears, read: compound alone (without gilteritinib), three days, 11 IC50.
[2] abbreviates: with gilteritinib 10 nM, three days, 11 IC50 gilteritinib.
[3] abbreviates: compound alone (without gilteritinib), three days, read-out: MOLM-13 IC50.
Setting [4] is: with gilteritinib 20 nM, three days, read-out: MOLM-13 IC50 gilteritinib.
The mark [5] stands for this setting: compound with gilteritinib 10 nM, three days, 11 IC50 gilteritinib.
The mark [6] stands for this setting: compound with gilteritinib 20 nM, three days, read-out: MOLM-13 IC50 gilteritinib.

As to `O=C1CCC(N2C(=O)c3ccc(NCCC[C@H]4C[C@H](n5cc(-c6cnc7ccc(N8C[C@@H]9C[C@H]8CN9)cc7n6)cn5)C4)cc3C2=O)C(=O)N1` (stereo partly drawn) [GS-203, 5-((3-(trans-3-(4-(7-((1S,4S)-2,5-Diazabicyclo[2.2.1]heptan-2-yl)quinoxalin-2-yl)-1H-pyrazol-1-yl)cyclobutyl)propyl)amino)-2-(2,6-dioxopiperidin-3-yl)isoindoline-1,3-dione], the IC50 is 0.1 to 1 µM in the assay with MV4;11 cells (setting [1]), 0.01 to 0.1 µM in the assay on MV4;11 cells (setting [2]), greater than 1 µM in the assay with MOLM-13 cells (setting [3]) and 0.01 to 0.1 µM with MOLM-13 cells (setting [4]).

Turning to `O=C1CCC(N2Cc3cc(NCCCCC4(N5CCC(n6cc(-c7cnc8ccccc8n7)cn6)CC5)CC4)ccc3C2=O)C(=O)N1` (stereo not drawn) [GS-137, 3-(1-Oxo-5-((4-(1-(4-(4-(quinoxalin-2-yl)-1H-pyrazol-1-yl)piperidin-1-yl)cyclopropyl)butyl)amino)isoindolin-2-yl)piperidine-2,6-dione], the IC50 with MV4;11 cells (setting [1]), in the assay on MV4;11 cells (setting [2]), in the assay with MOLM-13 cells (setting [3]) and with MOLM-13 cells (setting [4]) was greater than 1 µM each time.

For the molecule `O=C1CCC(N2C(=O)c3ccc(NC[C@H]4C[C@H](n5cc(-c6ncccc6N6CCNCC6)c(C6CC6)n5)C4)cc3C2=O)C(=O)N1` (stereo partly drawn) [GS-604, 5-(((trans-3-(3-cyclopropyl-4-(3-(piperazin-1-yl)pyridin-2-yl)-1H-pyrazol-1-yl)cyclobutyl)methyl)amino)-2-(2,6-dioxopiperidin-3-yl)isoindoline-1,3-dione], the IC50 with MV4;11 cells (setting [1]) is 0.01 to 0.1 µM; in the assay on MV4;11 cells (setting [5]), less than 0.01 µM; with MOLM-13 cells (setting [3]) it was 0.01 to 0.1 µM; in the assay on MOLM-13 cells (setting [6]), less than 0.01 µM.

For the molecule `CCc1cccc(-c2cn([C@H]3C[C@H](CNc4ccc5c(c4)C(=O)N(C4CCC(=O)NC4=O)C5=O)C3)nc2C2CC2)n1` (stereo partly drawn) [GS-069, 5-(((trans-3-(3-Cyclopropyl-4-(6-ethylpyridin-2-yl)-1H-pyrazol-1-yl)cyclobutyl)methyl)amino)-2-(2,6-dioxopiperidin-3-yl)isoindoline-1,3-dione], the IC50 with MV4;11 cells (setting [1]) was 0.01 to 0.1 µM; with MV4;11 cells (setting [2]) it was less than 0.01 µM; in the assay on MOLM-13 cells (setting [3]), 0.1 to 1 µM; with MOLM-13 cells (setting [4]) it was 0.01 to 0.1 µM.

Turning to `O=C1CCC(N2C(=O)c3ccc(NC[C@H]4C[C@H](n5cc(-c6cnc7ccccc7n6)c(C6CC6)n5)C4)cc3C2=O)C(=O)N1` (stereo partly drawn) [GS-579, 5-(((trans-3-(3-Cyclopropyl-4-(quinoxalin-2-yl)-1H-pyrazol-1-yl)cyclobutyl)methyl)amino)-2-(2,6-dioxopiperidin-3-yl)isoindoline-1,3-dione], the IC50 in the assay with MV4;11 cells (setting [1]), in the assay with MV4;11 cells (setting [5]), in the assay with MOLM-13 cells (setting [3]) and in the assay with MOLM-13 cells (setting [6]) was less than 0.01 µM in each case.

Consider `O=C1CCC(N2C(=O)c3ccc(NCCCCCC(=O)N4CCC(n5cc(-c6cnc7ccc(N8CCOCC8)cc7n6)cn5)CC4)cc3C2=O)C(=O)N1` (stereo not drawn) [GS-528, 2-(2,6-Dioxopiperidin-3-yl)-5-((6-(4-(4-(7-morpholinoquinoxalin-2-yl)-1H-pyrazol-1-yl)piperidin-1-yl)-6-oxohexyl)amino)isoindoline-1,3-dione], for which the IC50 with MV4;11 cells (setting [1]), with MV4;11 cells (setting [5]), in the assay on MOLM-13 cells (setting [3]) and in the assay on MOLM-13 cells (setting [6]) was less than 0.01 µM each time.

As for `O=C1CCC(N2C(=O)c3ccc(NC[C@H]4C[C@H](n5cc(-c6cccc(N7CCC7)n6)c(C6CC6)n5)C4)cc3C2=O)C(=O)N1` (stereo partly drawn) [GS-257, 5-(((trans-3-(4-(6-(Azetidin-1-yl)pyridin-2-yl)-3-cyclopropyl-1H-pyrazol-1-yl)cyclobutyl)methyl)amino)-2-(2,6-dioxopiperidin-3-yl)isoindoline-1,3-dione], the IC50 is less than 0.01 µM with MV4;11 cells (setting [1]), less than 0.01 µM in the assay on MV4;11 cells (setting [2]), 0.01 to 0.1 µM in the assay on MOLM-13 cells (setting [3]) and less than 0.01 µM with MOLM-13 cells (setting [4]).

In the case of `Cc1ccnc(-c2cn([C@H]3C[C@H](CNc4ccc5c(c4)C(=O)N(C4CCC(=O)NC4=O)C5=O)C3)nc2C2CC2)c1` (stereo partly drawn) [GS-253, 5-(((trans-3-(3-Cyclopropyl-4-(4-methylpyridin-2-yl)-1H-pyrazol-1-yl)cyclobutyl)methyl)amino)-2-(2,6-dioxopiperidin-3-yl)isoindoline-1,3-dione], the IC50 in the assay with MV4;11 cells (setting [1]) was less than 0.01 µM; in the assay on MV4;11 cells (setting [2]), less than 0.01 µM; in the assay with MOLM-13 cells (setting [3]) it was 0.01 to 0.1 µM; in the assay with MOLM-13 cells (setting [4]) it was less than 0.01 µM.

For the molecule `O=C1CCC(N2Cc3cc(NC(=O)c4cccc(N5CCC(n6cc(-c7cnc8ccccc8n7)cn6)CC5)c4)ccc3C2=O)C(=O)N1` (stereo not drawn) [GS-513, N-(2-(2,6-Dioxopiperidin-3-yl)-1-oxoisoindolin-5-yl)-3-(4-(4-(quinoxalin-2-yl)-1H-pyrazol-1-yl)piperidin-1-yl)benzamide], the IC50 in the assay on MV4;11 cells (setting [1]), in the assay with MV4;11 cells (setting [5]), in the assay with MOLM-13 cells (setting [3]) and in the assay on MOLM-13 cells (setting [6]) was less than 0.01 µM in each case.

As to `O=C1CCC(N2C(=O)c3ccc(NCCCCn4cc(-c5cnc6ccccc6n5)c(C5CC5)n4)cc3C2=O)C(=O)N1` (stereo not drawn) [GS-450, 5-((4-(3-cyclopropyl-4-(quinoxalin-2-yl)-1H-pyrazol-1-yl)butyl)amino)-2-(2,6-dioxopiperidin-3-yl)isoindoline-1,3-dione], the IC50 in the assay on MV4;11 cells (setting [1]) fell in the range of 0.01 to 0.1 µM; in the assay on MV4;11 cells (setting [5]) it was 0.01 to 0.1 µM; with MOLM-13 cells (setting [3]), 0.1 to 1 µM; with MOLM-13 cells (setting [6]), 0.01 to 0.1 µM.

On to `O=C1CCC(N2C(=O)c3ccc(NCCC[C@H]4C[C@H](n5cc(-c6cnc7ccccc7n6)c(C(F)F)n5)C4)cc3C2=O)C(=O)N1` (stereo partly drawn) [GS-243, 5-((3-(trans-3-(3-(Difluoromethyl)-4-(quinoxalin-2-yl)-1H-pyrazol-1-yl)cyclobutyl)propyl)amino)-2-(2,6-dioxopiperidin-3-yl)isoindoline-1,3-dione], for which the IC50 with MV4;11 cells (setting [1]) is 0.01 to 0.1 µM; in the assay with MV4;11 cells (setting [2]) it was less than 0.01 µM; in the assay with MOLM-13 cells (setting [3]), 0.01 to 0.1 µM; with MOLM-13 cells (setting [4]), less than 0.01 µM.

With `O=C1CCC(N2C(=O)c3ccc(NCCc4ccc(-n5cc(-c6cnc7ccccc7n6)cn5)cc4)cc3C2=O)C(=O)N1` (stereo not drawn) [GS-117, 2-(2,6-Dioxopiperidin-3-yl)-5-((4-(4-(quinoxalin-2-yl)-1H-pyrazol-1-yl)phenethyl)amino)isoindoline-1,3-dione], the IC50 in the assay with MV4;11 cells (setting [1]) is greater than 1 µM; in the assay on MV4;11 cells (setting [2]), 0.1 to 1 µM; in the assay with MOLM-13 cells (setting [3]), greater than 1 µM; in the assay with MOLM-13 cells (setting [4]), 0.1 to 1 µM.

Turning to `O=C1CCC(N2Cc3ccc(CCCCC(=O)N4CCC(n5cc(-c6ccc7ccccc7n6)cn5)CC4)cc3C2=O)C(=O)N1` (stereo not drawn) [GS-160, 3-(1-Oxo-6-(5-oxo-5-(4-(4-(quinolin-2-yl)-1H-pyrazol-1-yl)piperidin-1-yl)pentyl)isoindolin-2-yl)piperidine-2,6-dione], the IC50 in the assay on MV4;11 cells (setting [1]) was 0.1 to 1 µM; in the assay on MV4;11 cells (setting [2]), 0.01 to 0.1 µM; in the assay on MOLM-13 cells (setting [3]), greater than 1 µM; with MOLM-13 cells (setting [4]), 0.01 to 0.1 µM.

Take `O=C1CCC(N2C(=O)c3ccc(NC[C@H]4C[C@H](n5nc(C6CC6)c6ncccc65)C4)cc3C2=O)C(=O)N1` (stereo partly drawn) [GS-475, 5-(((trans-3-(3-cyclopropyl-1H-pyrazolo[4,3-b]pyridin-1-yl)cyclobutyl)methyl)amino)-2-(2,6-dioxopiperidin-3-yl)isoindoline-1,3-dione]: the IC50 with MV4;11 cells (setting [1]), in the assay with MV4;11 cells (setting [5]), in the assay with MOLM-13 cells (setting [3]) and in the assay with MOLM-13 cells (setting [6]) was greater than 1 µM throughout.

Consider `O=C1CCC(N2C(=O)c3ccc(NCCCCCC(=O)N4CCCCC4)cc3C2=O)C(=O)N1` (stereo not drawn) [GS-001, 2-(2,6-Dioxopiperidin-3-yl)-5-((6-oxo-6-(piperidin-1-yl)hexyl)amino)isoindoline-1,3-dione], for which the IC50 with MV4;11 cells (with 10 nM gilteritinib, 3 days, 11 IC50 gilteritinib) was greater than 10 µM; in the assay on MV4;11 cells (without gilteritinib, 3 days, 11 IC50) it was 4.74 µM; in the assay on MOLM-13 cells (with 20 nM gilteritinib, 3 days, read-out: MOLM-13 IC50 gilteritinib) it was 0.027 µM; in the assay on MOLM-13 cells (without gilteritinib, 3 days, read-out: MOLM-13 IC50) it was 0.301 µM.

On to `O=C1CCC(N2C(=O)c3ccc(NC[C@H]4C[C@H](n5cc(N6CCNCC6)c(C6CC6)n5)C4)cc3C2=O)C(=O)N1` (stereo partly drawn) [GS-455, 5-(((trans-3-(3-cyclopropyl-4-(piperazin-1-yl)-1H-pyrazol-1-yl)cyclobutyl)methyl)amino)-2-(2,6-dioxopiperidin-3-yl)isoindoline-1,3-dione], for which the IC50 in the assay on MV4;11 cells (setting [1]), with MV4;11 cells (setting [5]), with MOLM-13 cells (setting [3]) and in the assay on MOLM-13 cells (setting [6]) was greater than 1 µM in each case.

As for `O=C1CCC(N2C(=O)c3ccc(NCCC[C@H]4C[C@@H](n5cc(-c6cnc7ccc(C8CCNCC8)cc7n6)c(C6CC6)n5)C4)cc3C2=O)C(=O)N1` (stereo partly drawn) [GS-231, 5-((3-(cis-3-(3-Cyclopropyl-4-(7-(piperidin-4-yl)quinoxalin-2-yl)-1H-pyrazol-1-yl)cyclobutyl)propyl)amino)-2-(2,6-dixopiperidin-3-yl)isoindoline-1,3-dione], the IC50 in the assay on MV4;11 cells (setting [1]) is 0.01 to 0.1 µM; with MV4;11 cells (setting [2]), less than 0.01 µM; with MOLM-13 cells (setting [3]) it was 0.01 to 0.1 µM; in the assay with MOLM-13 cells (setting [4]), less than 0.01 µM.

`O=C1CCC(N2Cc3ccc(CCCCCC(=O)N4CCC(n5cc(-c6cnc7ccccc7n6)cn5)CC4)cc3C2=O)C(=O)N1` (stereo not drawn) [GS-101, 3-(1-Oxo-6-(6-oxo-6-(4-(4-(quinoxalin-2-yl)-1H-pyrazol-1-yl)piperidin-1-yl)hexyl)isoindolin-2-yl)piperidine-2,6-dione]: the IC50 was less than 0.01 µM in the assay with MV4;11 cells (setting [1]), less than 0.01 µM in the assay on MV4;11 cells (setting [2]), 0.01 to 0.1 µM in the assay with MOLM-13 cells (setting [3]) and less than 0.01 µM in the assay on MOLM-13 cells (setting [4]).

The values above are taken from patent US20240050428A1 (Cullgen (Shanghai), Inc., priority 2020, published 2024).
